The values below come from PubChem BioAssay AID977606 (Broad Institute, 2014).

Active and inactive are the calls of the source. No rule for the calls is given here.

The subject of the assay is INS-1E Gaussia luciferase insulin secretion, no glucose, luminescence. Description: glucose-independent GLuc insulin release activation – cell-based, INS-1E, Gaussia luciferase, luminescence, cherry-pick, counter-screen for glucose-dependent insulin secretion activators, dose response (AID 977606).
As to `CC(C)(C(=O)N1CCC1(C)C(=O)NS(=O)(=O)c1cccc(Cl)c1)c1ccccc1` (centres undefined), the AC40 was 3.65 µM.
For the compound `NS(=O)(=O)c1ccc(NC(=S)N2CCN(c3ccc(Cl)c(Cl)c3)CC2)cc1`, the AC40 is 3.74 µM.
`O=C(Nc1ccccc1)c1nnsc1S(=O)(=O)c1ccc(Cl)cc1`: the AC40 is 0.403 µM.
The figure for `O=C(NCC1OCCc2ccccc21)c1ccc(NC(=O)c2ccc(Cl)cc2Cl)cc1` (centres undefined) is 17.9 µM; for `COc1ccccc1C(=O)NC(=S)NC12CC3CC(CC(C3)C1)C2` it is 7.67 µM; for `O=C1Nc2ccccc2N(C(=O)c2ccc3ccccc3c2)C1c1nc2ccccc2[nH]1` (centres undefined) it is 6.41 µM.
Regarding `CCc1ccc(-c2c(C)sc(NC(=O)C3CCC3)c2C#N)cc1`, the AC40 was > 35 µM (inactive).
With `CC(=O)c1nn(-c2ccc(Br)cc2)cc1C(=O)c1ccccc1`, the AC40 is 22.1 µM.
The figure for `NC(=O)c1ccc2nc(-c3ccccc3)c(-c3ccccc3)nc2c1` is 19.8 µM; for `CCN(CC)c1ccc(N=Cc2c(O)n(Cc3ccccc3)c(=O)[nH]c2=O)cc1` it is 7.08 µM; for `Cc1ccc(/C=N/NC(=O)COc2ccccc2-c2ccccc2)cc1` it is 4.99 µM.
As to `O=c1c2ccccc2sn1-c1ccccc1F`, the AC40 is 1.22 µM.
Next, `CCN=C1NC(c2ccc(C(F)(F)F)cc2)C(C(=O)OC)=C(C)N1Cc1cccc(C(F)(F)F)c1` (centres undefined): 3.88 µM; `FC(F)(F)c1cc(CCN2CCNC[C@@H]2c2ccccc2)cc(C(F)(F)F)c1`: 7.26 µM.
On to `O=c1c2ccccc2sn1-c1ccccc1`, for which the AC40 is 1.79 µM.
Turning to `COCCn1c(=NC(=O)c2cc(Cl)sc2Cl)sc2cc(S(N)(=O)=O)ccc21`, the AC40 was 6.07 µM.
Consider `COC(=O)C1=C(C)N(Cc2ccc(C(F)(F)F)cc2)C(=NCC2CC2)NC1c1ccccc1` (centres undefined), for which the AC40 was 9.63 µM.
The figure for `CC(C)(C)c1ccc(OCC(=O)Nc2ccc(-c3nc4cccnc4o3)cc2)cc1` is 7.74 µM; for `CCCCc1c(-c2ccc(F)cc2F)ncn1CCc1ccccc1OC` it is 5.38 µM; for `N#Cc1cccc(Oc2ccc(-c3cnc4ccccc4n3)cc2)c1C#N` it is 9.37 µM.
Consider `COc1ccc(C#Cc2ccc([C@@H]3[C@@H](CO)N4CCCCN(Cc5ccccc5F)C[C@@H]34)cc2)cc1`, for which the AC40 is 11.1 µM.
Next, `C=CCNc1nc(NCc2ccco2)nc(OCC)n1`: > 35 µM (inactive).
Regarding `COC(=O)C1=C(C)N(Cc2cccc(C(F)(F)F)c2)C(=NCc2ccc(C(F)(F)F)cc2)NC1c1ccccc1` (centres undefined), the AC40 is 8.93 µM.
Consider `C[C@@H]1CN([C@@H](C)CO)C(=O)c2cc(Br)cnc2O[C@H]1CN(C)C(=O)C1CC1`, for which the AC40 is > 35 µM (inactive).
On to `Oc1ccccc1C1SC(c2ccccc2O)SC(c2ccccc2O)S1` (centres undefined), for which the AC40 is 5.36 µM.
As to `CC(C)n1nc(C(=O)Nc2ccccc2N2CCOCC2)c2ccccc2c1=O`, the AC40 was 6.12 µM.
As for `Cc1nnn(-c2nonc2N)c1C(=O)N/N=C/c1cccc2ccccc12`, the AC40 is 6.5 µM.
Consider `O=C1CC(Sc2nnc(-c3ccccc3)o2)C(=O)N1c1ccccc1` (centres undefined), for which the AC40 is 9.58 µM.
The figure for `CNc1nc(-c2ccccc2)[n+](-c2ccc(C)cc2)s1` is 0.858 µM; for `CCOC(=O)[C@]12Cc3cc(OC)ccc3[C@H]1N(C1CCCCC1)C(=O)c1cc(OC)ccc12` it is 11.7 µM; for `CCC(C)Sc1cccc(-c2nc3cnccn3c2NC2CCCCC2)c1` (centres undefined) it is 4.26 µM.
`O=c1c2cc(F)ccc2sn1-c1ccccc1Cl`: the AC40 was 1.35 µM.
Take `CCCCCCCOC(=O)c1nc(Cl)c(Cl)c(N)c1Cl`: the AC40 was 8.89 µM.
Turning to `CN(C)CCNc1ncnc2oc(-c3ccccc3)c(-c3ccccc3)c12`, the AC40 was 26.4 µM.
With `Cc1ccc(-c2cc(C(=O)NCc3cnn(C)c3)c3cc(Br)ccc3n2)cc1`, the AC40 was 1.24 µM.
For `COc1ccc(/C=N/NC(=O)c2ccc(COc3ccccc3Cl)o2)c(OC)c1C`, the AC40 was 4.97 µM.
With `COc1ccccc1CCn1cnc(-c2ccc(F)cc2)c1CC(C)C`, the AC40 was 6.41 µM.
Next, `Cc1ccc(CNc2nc(NCc3ccccc3)nc3ccsc23)c(C)c1`: 5.58 µM; `Cc1cc(C)cc(NC(=O)Cc2ccc(-n3cccc3)cc2)c1`: 6.9 µM; `OC(c1ccccc1)(c1ccccc1)C1CCN(CCCOc2cccc(OC(F)(F)F)c2)CC1`: 3.95 µM.
With `OC(c1ccccc1)(c1nc(-c2cccc(C(F)(F)F)c2)cs1)C(F)(F)F` (centres undefined), the AC40 was 10.1 µM.
Next, `CCOc1ccc2ccc(OCC)c(/C=N/n3cnnc3)c2c1`: 34.8 µM.
Next, `CC1(C(=O)NCC2CCCCC2)CCN1CCc1ccccc1` (centres undefined): 17.9 µM; `Cc1cc(C)c2c(C)nn(C3CCCCC3)c2n1`: > 35 µM (inactive).
Turning to `COc1ccc(NC(=O)c2sc3nc(N4CCOCC4)c4c(c3c2N)CC(C)(C)OC4)c(OC)c1`, the AC40 was 6.06 µM.
As to `COc1ccccc1C(=O)NC(=S)Nc1ccc2[nH]c(=O)[nH]c2c1`, the AC40 is 8.24 µM.
As for `Cc1cc(C)n(-c2nc(NCCN(C)C)c3c4c(sc3n2)CCCC4)n1`, the AC40 was 10.7 µM.
`CCOC(=O)c1cc2sccc2n1CC(=O)N1c2ccccc2CC1C` (centres undefined): the AC40 was 5.99 µM.
For `CCOC(=O)CN1C(=O)[C@]2(OCCC=C[C@H]2C)c2ccccc21`, the AC40 is 13 µM.
In the case of `O=C(NCC1OCCc2ccccc21)c1ccc(NC(=O)c2cccc(Br)c2)cc1` (centres undefined), the AC40 is 11.1 µM.
For `CC(=O)Oc1ccccc1C(=O)OCCN=C1NS(=O)(=O)c2ccccc21`, the AC40 is > 35 µM (inactive).
Take `Cc1cc(OCCCN2CCC(C(O)(c3ccccc3)c3ccccc3)CC2)ccc1Br`: the AC40 was 3.84 µM.
Regarding `COc1ccc(OC)c(NC(=O)c2cc3c(Cl)nc4ccccc4c3s2)c1`, the AC40 is 6.97 µM.
Regarding `CN(C)CCNC(=O)c1cccc(-c2cc(NC=O)c3ncc(-c4cccc(C(F)(F)F)c4)n3c2)c1`, the AC40 is 13.7 µM.
